Source: patent publication US7759486B2, “2,4,5-Trisubstituted pyrimidine compounds” (GlaxoSmithKline LLC, priority 2000, dated 2010)

Key:
CSBP/p38 = molecular target: T1, CSBP/p38 (Homo sapiens, UniProt Q16539); assay: CSBP/p38 Kinase Assay (32P transfer from ATP to EGFR-derived T669 peptide); assay type: biochemical; conditions: yeast-expressed, activated and purified p38, 0.17 mM ATP, 25 min at 37° C., read-out: IC50, positive inhibitory activity in this binding assay
T1 construct: made in house; host or cells: yeast
T1 sequence (Q16539 whole entry): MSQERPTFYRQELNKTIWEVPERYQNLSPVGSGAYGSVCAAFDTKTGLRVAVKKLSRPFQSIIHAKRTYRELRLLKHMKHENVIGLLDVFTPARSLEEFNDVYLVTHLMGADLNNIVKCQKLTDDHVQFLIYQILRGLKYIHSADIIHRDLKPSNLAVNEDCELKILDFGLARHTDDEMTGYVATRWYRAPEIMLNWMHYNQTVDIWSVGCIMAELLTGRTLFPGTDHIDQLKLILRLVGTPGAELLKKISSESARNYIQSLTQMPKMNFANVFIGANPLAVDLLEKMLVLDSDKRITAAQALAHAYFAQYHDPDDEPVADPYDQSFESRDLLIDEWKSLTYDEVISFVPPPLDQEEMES
Procedure: Assay: Test compound concentrations were prepared at 10× concentrations and LPS prepared at […] (final conc. of 50 ng/ml LPS) and added in 50 uL volumes to 1.5 mL eppendorf tubes. Heparinized human whole blood was obtained from healthy volunteers and was dispensed into eppendorf tubes containing compounds and LPS in 0.4 mL volumes and the tubes incubated at 37 C. Following a 4 hour incubation, the tubes were centrifuged at 5000 rpm for 5 minutes in a TOMY microfuge, plasma was withdrawn and frozen at −80 C. Cytokine measurement: IL-1 and/or TNF were quantified using a standardized ELISA technology. An in-house ELISA kit was used to detect human IL-1 and TNF. Concentrations of IL-1 or TNF were determined from standard curves of the appropriate cytokine and IC50 values for test compound (concentration that inhibited 50% of LPS-stimulated cytokine production) were calculated by linear regression analysis. CSBP/p38 Kinase Assay:
This assay measures the CSBP/p38-catalyzed transfer of ^32P from […] to threonine residue in an epidermal growth factor receptor (EGFR)-derived peptide (T669) with the following sequence: […] (SEQ ID No. 1) (residues 661-681). […]
Reactions were carried in round bottom 96 well plate (from Corning) in a 30 ml volume. […] Filters were washed with 75 mM phosphoric acids, and incorporated 32P was quantified using beta scintillation counter. […]

| IC50 (CSBP/p38) | melting point | Compound |
| --- | --- | --- |
| < 10 µM | – | CSc1nc(Oc2ccccc2)c2ccc(=O)n(-c3ccccc3Cl)c2n1 [Example 111, 8-(2-Chloro-phenyl)-2-methylsulfanyl-4-phenoxy-8H-pyrido[2,3-d]pyrimidin-7-one] |
| – | 246 to 248 °C | Cc1cc(F)ccc1-c1nc(NCCNC(=O)c2ccccc2)nc2c1ccc(=O)n2-c1c(F)cccc1F [Example 163, 8-(2,6-Difluorophenyl)-4-(4-fluoro-2-methylphenyl)-2-[N-(2-aminoethyl)-3-benzamido]-8H-pyrido[2,3-d]pyrimidin-7-one] |
| – | 214 to 216 °C | CCC(=O)NCCNc1nc(-c2ccc(F)cc2C)c2ccc(=O)n(-c3c(F)cccc3F)c2n1 [Example 165] |
| – | 111 to 133 °C | Cc1cc(F)ccc1-c1nc(NCCNC(=O)C(C)(C)C)nc2c1ccc(=O)n2-c1c(F)cccc1F [Example 166] |
| – | 106 to 119 °C | Cc1cc(F)ccc1-c1nc(NCCNC(=O)OC(C)(C)C)nc2c1ccc(=O)n2-c1c(F)cccc1F [Example 167] |
| – | > 300 °C | Cc1cc(F)ccc1-c1nc(Nc2c[nH]c(=O)[nH]c2=O)nc2c1ccc(=O)n2-c1c(F)cccc1F [Example 168, 8-(2,6-Difluorophenyl)-4-(4-fluoro-2-methylphenyl)-2-(N-aminouracil-5-yl)-8H-pyrido[2,3-d]pyrimidin-7-one] |
| – | 105 to 115 °C (dec.) | Cc1cc(F)ccc1-c1nc(NCCNS(C)(=O)=O)nc2c1ccc(=O)n2-c1c(F)cccc1F [Example 189, N-[2-[[8-(2,6-Difluorophenyl)-4-(4-fluoro-2-methylphenyl)-7,8-d hydro-7-oxopyrido[2,3-d]pyrimidin-2-yl]amino]ethyl]methanesulfonamide] |
| – | 212 to 213 °C | COC(=O)CNc1nc(-c2ccc(F)cc2C)c2ccc(=O)n(-c3c(F)cccc3F)c2n1 [Example 190, Methyl N-[8-(2,6-difluorophenyl)-4-(4-fluoro-2-methylphenyl)-7,8-dihydro-7-oxopyrido[2,3-d]pyrimidin-2-yl] glycinate] |
| – | 260 to 261 °C | Cc1cc(F)ccc1-c1nc(NCC(=O)O)nc2c1ccc(=O)n2-c1c(F)cccc1F [Example 191, N-[8-(2,6-Difluorophenyl)-4-(4-fluoro-2-methylphenyl)-7,8-dihydro-7-oxopyrido[2,3-d]pyrimidin-2-yl]glycine] |
| – | 250 to 253 °C (dec.) | CCNC(=O)CNc1nc(-c2ccc(F)cc2C)c2ccc(=O)n(-c3c(F)cccc3F)c2n1 [Example 192] |
